Drawing on ChEMBL document CHEMBL5316270 (J Med Chem, 2023), this text covers IC50, inhibition and Activity for nine molecules.

For data set [1], the target named is T1, mTORC1 (Homo sapiens, UniProt P42345+Q8N122+Q9BVC4). It counts as cell-based, MDA-MB-468.
The next data set can be described thus: cells. It counts as cell-based. The following applies: Homo sapiens, MDA-MB-468.
Data set [2] concerns the target T1, mTORC1. Format: cell-based, MDA-MB-468. The source holds these as a separate data set.
Data set [3] relates to Mus musculus. As to the kind of experiment: In vivo inhibition of mTORC1 in human MCF7 cells harboring PIK3CA […] mutation xenografted in Balb/c nude mouse assessed as inhibition of tumor p4EBP1 level at 1 mg/kg,ip and measured after 24 hrs by MSD analysis. It counts as functional, organism-based.
Data set [4] concerns Mus musculus. As to the kind of experiment: In vivo inhibition of mTORC1 in human MCF7 cells harboring PIK3CA […] mutation xenografted in Balb/c nude mouse assessed as inhibition of tumor p4EBP1 level at 1 mg/kg,ip and measured at 4 hrs by MSD analysis. Format: functional, organism-based.
The test system of data set [5] is Mus musculus. As to the kind of experiment: In vivo inhibition of mTORC1 in human MCF7 cells harboring PIK3CA […] mutation xenografted in Balb/c nude mouse assessed as inhibition of tumor p4EBP1 level at 5 mg/kg,po and measured upto 48 hrs by MSD analysis. It counts as functional, organism-based.
The test system of data set [6] is NCI-H2122. The experiment in a line: Antitumor activity against human NCI-H2122 cells harboring KRAS G12C mutation xenografted in Balb/c nude mouse assessed as reduction in tumor volume at 100 mg/kg,ip qd co-treated with RMC-627 at 10 mg/kg,ip qw by caliper measurement analysis. Format: functional, organism-based.
Data set [7] relates to NCI-H2122. As to the kind of experiment: Antitumor activity against human NCI-H2122 cells harboring KRAS G12C mutation xenografted in Balb/c nude mouse assessed as reduction in tumor volume at 100 mg/kg,ip qd by caliper measurement analysis. It counts as functional, organism-based.
A short description of data set [8]: Toxicity in Balb/c nude mouse xenografted with human NCI-H2122 cells harboring KRAS G12C mutation assessed as body weight loss at 100 mg/kg,ip qd co-treated with RMC-627 at 10 mg/kg,ip qw. It counts as organism-based. The following applies: in vivo.
In data set [9] the test system is NCI-H2122. As to the kind of experiment: Antitumor activity against human NCI-H2122 cells harboring KRAS G12C mutation xenografted in Balb/c nude mouse assessed as induction of apoptosis by measuring caspase-3 level at 100 mg/kg,ip qd by immunostaining based microscopy. Format: functional, organism-based.
Data set [10] concerns NCI-H2122. The experiment in a line: Antitumor activity against human NCI-H2122 cells harboring KRAS G12C mutation xenografted in Balb/c nude mouse assessed as induction of apoptosis by measuring caspase-3 level at 100 mg/kg,ip qd co-treated with RMC-627 at 10 mg/kg,ip qw by immunostaining based microscopy. Format: functional, organism-based.

pIC50: −log10 of the molar value. Activity calls are given as the source filed them. No cut-off for these calls is given here.

`CO[C@H]1C[C@@H]2CC[C@@H](C)[C@@](O)(O2)C(=O)C(=O)N2CCCC[C@H]2C(=O)O[C@H]([C@H](C)C[C@@H]2CC[C@@H](OC(=O)NCCOCCOCCOCCOCCOCCOCCOCCOCCC(=O)N3CCc4cc(Cn5nc(-c6ccc7oc(N)nc7c6)c6c(N)ncnc65)ccc4C3)[C@H](OC)C2)C[C@@H](O)[C@H](C)/C=C(\C)[C@@H](O)[C@@H](OC)C(=O)[C@H](C)C[C@H](C)/C=C/C=C/C=C/1C` [RMC-5552]: the pIC50 against mTORC1 [1] is 9.77; in the data set “cells”, 7.46; against mTORC1 [2] it was 8.80.

`CC(C)n1nc(-c2ccc3oc(N)nc3c2)c2c(N)ncnc21`: the inhibition result with Mus musculus [3] is “inactive”. The inhibition entry in the data set on Mus musculus [4] is “Active”.

Take `CC(C)n1nc(-c2cc3cc(O)ccc3[nH]2)c2c(N)ncnc21`: in the data set “cells”, the pIC50 was 7.42.

The molecule `CO[C@H]1C[C@@H]2CC[C@@H](C)[C@@](O)(O2)C(=O)C(=O)N2CCCC[C@H]2C(=O)O[C@H]([C@H](C)C[C@@H]2CC[C@@H](OCCCCc3cn(CCOCCOCCOCCOCCOCCOCCOCCOCCC(=O)NCCCCn4nc(-c5ccc6oc(N)nc6c5)c5c(N(C)C)ncnc54)nn3)[C@H](OC)C2)CC(=O)[C@H](C)/C=C(\C)[C@@H](O)[C@@H](OC)C(=O)[C@H](C)C[C@H](C)/C=C/C=C/C=C/1C` had a pIC50 against mTORC1 [2] of less than 6.00.

Turning to `CO[C@H]1C[C@@H]2CC[C@@H](C)[C@@](O)(O2)C(=O)C(=O)N2CCCC[C@H]2C(=O)O[C@H]([C@H](C)C[C@@H]2CC[C@@H](OCCO)[C@H](OC)C2)CC(=O)[C@H](C)/C=C(\C)[C@@H](O)[C@@H](OC)C(=O)[C@H](C)C[C@H](C)/C=C/C=C/C=C/1C` [EVEROLIMUS], the inhibition result in the data set with Mus musculus [5] was “inactive”. In addition, the pIC50 against mTORC1 [2] is less than 6.00.

For `CO[C@H]1C[C@@H]2CC[C@@H](C)[C@@](O)(O2)C(=O)C(=O)N2CCCC[C@H]2C(=O)O[C@H]([C@H](C)C[C@@H]2CC[C@@H](OC(=O)NCCOCCOCCOCCOCCOCCOCCOCCOCCC(=O)NCCCCn3nc(-c4ccc5oc(N)nc5c4)c4c(N)ncnc43)[C@H](OC)C2)C[C@@H](O)[C@H](C)/C=C(\C)[C@@H](O)[C@@H](OC)C(=O)[C@H](C)C[C@H](C)/C=C/C=C/C=C/1C`, the pIC50 at mTORC1 [1] was 9.62; in “cells” it was 7.89; on mTORC1 [2], 8.89.

On to `CO[C@H]1C[C@@H]2CC[C@@H](C)[C@@](O)(O2)C(=O)C(=O)N2CCCC[C@H]2C(=O)O[C@H]([C@H](C)C[C@@H]2CC[C@@H](OC(=O)NCCOCCOCCOCCOCCOCCOCCOCCOCCC(=O)NCCS(=O)(=O)c3ccc(C(=O)N4CCOc5ccc(-c6ccc(N)nc6)cc5C4)c(C)c3F)[C@H](OC)C2)C[C@@H](O)[C@H](C)/C=C(\C)[C@@H](O)[C@@H](OC)C(=O)[C@H](C)C[C@H](C)/C=C/C=C/C=C/1C`, for which the pIC50 at mTORC1 [1] was 9.72; in “cells”, 7.46; at mTORC1 [2], 9.01.

Consider `C=CC(=O)N1CCN(c2nc(=O)n(-c3c(C)ccnc3C(C)C)c3nc(-c4c(O)cccc4F)c(F)cc23)[C@@H](C)C1` [SOTORASIB], for which the result in the data set with NCI-H2122 [6] and in the data set on NCI-H2122 [10] was Active. Besides, the result in the data set with NCI-H2122 [7] and in the data set with NCI-H2122 [9] was inactive. For the same molecule, the Activity result in [8] is reported as “Non-Toxic”.

Take `CO[C@H]1C[C@@H]2CC[C@@H](C)[C@@](O)(O2)C(=O)C(=O)N2CCCC[C@H]2C(=O)O[C@H]([C@H](C)C[C@@H]2CC[C@@H](OC(=O)NCCOCCOCCOCCOCCOCCOCCOCCOCCC(=O)NCCCCn3nc(-c4ccc5oc(N)nc5c4)c4c(N)ncnc43)[C@H](OC)C2)C[C@@H](OC)[C@H](C)/C=C(\C)[C@@H](O)[C@@H](OC)C(=O)[C@H](C)C[C@H](C)/C=C/C=C/C=C/1C`: the negative logarithm of the IC50 (pIC50) at mTORC1 [1] was 9.31; in “cells”, 8.08; against mTORC1 [2], 8.85.
